“And” between values parts separate entries of the source, which are not always exact repeats. Equal entries are not always repeated.
System: P. falciparum 3D7 growth, pLDH absorbance
Test: blood-stage malaria parasite growth potency – strain 3D7, dose response (AID 2305)

| Compound | IC50 |
| --- | --- |
| O[C@@H](c1cccc2ccccc12)[C@@H]1CN(CCc2ccccc2)CC[C@@]1(O)c1ccccc1 | 140 nM |
| CCCc1cc(=O)oc2cc(OC)c(C(=O)CC(C)C)c(OC)c12 | 1010 nM |
| c1ccc2c(Nc3ccc(Oc4ccc(Nc5c6ccccc6nc6ccccc56)cc4)cc3)c3ccccc3nc2c1 | 520 nM |
| O=[N+]([O-])c1ccc(C(O)P(=O)(c2ccccc2)c2ccccc2)cc1 (stereo not drawn) | 340 nM |
| O=C(/C=C/c1ccc2ccccc2c1)NCC1(c2ccc(-c3ccccc3)cc2)CCOCC1 | 1520 nM |
| CC(C)C[C@H](NC(=O)c1ccc(OCCN2CCOCC2)cc1)C(=O)N[C@H](/C=N/N1CCN(C)C1=O)CCc1ccccc1 | 290 nM |
| Cc1cc(NCCC(=O)Nc2ccccc2)nc(NCCc2ccccc2)n1 | 850 nM |
| CCOc1cc(Cc2cnc(N)nc2N)ccc1OC | 1250 nM |
| CN(C)c1ccc(C=C2SC(=N)N(c3nccs3)C2=O)cc1 | 460 nM |
| O=C(/C=C/c1ccc(Cl)cc1)NC1CCC(CN2CCC(c3c[nH]c4ccccc34)CC2)CC1 (stereo not drawn) | 800 nM and 730 nM |
| COc1ccccc1C1CCN(C2CCC(NC(=O)/C=C/c3cc(C(F)(F)F)cc(C(F)(F)F)c3)CC2)CC1 (stereo not drawn) | 1200 nM |
| CC(O)C1CCCCN1C(=O)c1cccc(-c2ccc(-c3nc4ccc(C(F)(F)F)cc4[nH]3)cc2)c1 (stereo not drawn) | 690 nM |
| Clc1ccccc1CNc1noc(-c2sccc2Br)n1 | 790 nM |
| O=C(Cc1cccc(OCCCN(Cc2cccc(C(F)(F)F)c2Cl)CC(c2ccccc2)c2ccccc2)c1)NCc1ccco1 | 940 nM |
| O=C(N[C@@H](CC1CCCCC1)C(=O)NCCN1CCOCC1)c1ccc(O)c(-c2ccc(Cl)c(Cl)c2)c1 | 180 nM |
| CC(=O)Oc1c(C2CCN(CCCCNC(=O)c3ccc(NC(=O)c4ccc(Cl)cc4)cc3)CC2)ccc2ccccc12 | 880 nM |
| CCOc1cccc(C(=O)Nc2nonc2-c2ccc(OC)c(OC)c2)c1 | 1020 nM |
| CC(C)Cc1cn(-c2nc(-c3nc4ccccc4[nH]3)cs2)c2cc(Cl)ccc12 | 480 nM |
| CC(=O)Nc1cccc(C(=O)Nc2cccc(-c3ccc(-c4nc5ccc(C(F)(F)F)cc5[nH]4)s3)c2)c1 | 650 nM |
| CCC(C)OC(=O)C1=C(C)NC2=C(C(=O)CC(c3ccc(OC)c(OC)c3)C2)C1c1ccc(C)o1 (stereo not drawn) | 900 nM |
| Cc1cc(N[C@@H](Cc2ccccc2)C(=O)NCc2cccc(F)c2)nc(NCCc2ccc(F)cc2)n1 | 650 nM |
| O=C(Nc1cccc(CN2CCCN(Cc3ccc4c(c3)OCO4)CC2)c1)c1ccc(Cl)c(Cl)c1 | 890 nM |
| Cc1cc(N2CCCC2)nc(Nc2ccc(NC(=O)c3ccco3)cc2)n1 | 840 nM |

| Compound | IC50 |
| --- | --- |
| COc1ccc2nccc([C@@H](O)CN3CC[C@H](NCc4nc5c(cc4F)SCC(=O)N5)[C@H](F)C3)c2c1 | 730 nM |
| CCCCCCC(C)(C)c1cc(O)c2c(c1)OC(C)(C)c1ccncc1-2 | 180 nM |
| COc1ccc(CN(C)CCCc2ccc(NC(=O)c3cccc4c(=O)c5cccc(F)c5[nH]c34)cc2)cc1OC | 940 nM |
| Cc1cc(-c2cc(Cl)ccc2Cl)no1 | 170 nM |
| N=C(N)c1ccc(-c2cc(-c3cccc(C(=N)N)c3)on2)cc1 | 10 nM |
| C#CC(C)(CO)N1CCCC1 (stereo not drawn) | 380 nM |
| Cn1cnc(CCNC(=O)c2ccc(-c3ccc(-c4nc5ccc(F)cc5[nH]4)cc3)cc2)c1 | 870 nM |
| NC(=O)c1cccc(Nc2nccc(Nc3ccc(Oc4cccc5ccccc45)cc3)n2)c1 | 1150 nM |
| Cc1cc(N[C@@H](CC(C)C)C(=O)NCc2cccc(F)c2)nc(Nc2ccccc2)n1 | 1090 nM |
| COc1ccc2nc(C)cc(NCc3cccc4ccccc34)c2c1 | 220 nM |
| CO/C(=C\C=C\c1cc2cc(Cl)c(Cl)cc2[nH]1)C(=O)NCCCCN1CCN(c2ccccc2OC)CC1 | 510 nM |
| CC(=O)Nc1cccc(Nc2nccc(-c3c(-c4cccc(NC(=O)c5c(F)cccc5F)c4)nn4ncccc34)n2)c1 | 180 nM |
| CCn1c(SC)nnc1C1CCCN(CC(=O)Nc2nc3ccc(OC)cc3s2)C1 (stereo not drawn) | 750 nM |
| COc1ccc(N2CCN(CCCN3CCN(C(=O)c4ccc(/C=C/c5ccc(Cl)c(Cl)c5)cc4)CC3)CC2)c(OC)c1 | 910 nM |
| CCCCN(Cc1cc(Cl)c(OCC)c(OC)c1)c1ccc(C(O)(C(F)(F)F)C(F)(F)F)cc1 | 910 nM |
| COc1ccc(S(=O)(=O)N(CCCN2CCN(C)CC2)Cc2csc(-c3ccc(CNCc4ccccc4)cc3)n2)cc1 | 950 nM |
| O=C(Nc1ccc(OC2CCN(Cc3ccc(F)cc3)C2)c(Cl)c1)c1ccco1 (stereo not drawn) | 190 nM |
| COc1cc2c(cc1OC)C(C(=O)c1ccccc1)=NCC2 | 1090 nM |
| O=C(NC1CC1)c1ccc(N2CCOc3ccc(Cl)cc32)s1 | 800 nM |
| O=C(N[C@H]1CCN(Cc2ccc(OCCCN3CCCCC3)cc2)C1)c1ccc(Oc2ccccc2)cc1 | 780 nM |
| O=C(NCCCN1CCCCC1)c1ccc(Nc2nccc(Nc3ccc(Oc4ccccc4)cc3)n2)cc1 | 630 nM |
| CCOc1ccc(Nc2nc(N)c3ccccc3n2)cc1 | 1150 nM |
| CCN(CCC1(c2ccc(Cl)c(Cl)c2)CN(C(=O)c2cc(OC)c(OC)c(OC)c2)CCO1)[C@@H]1C[C@@H]2c3ccccc3C[C@@H]21 (stereo partly drawn) | 430 nM |

| Compound | IC50 |
| --- | --- |
| O=C1C2C(C(=O)N1c1ccccc1)[C@H]1S[C@@H]2c2c1ccc1ccccc21 (stereo partly drawn) | 770 nM |
| CCCN(Cc1nnc(-c2cccs2)o1)C(=O)CSc1nnnn1-c1cc(C)cc(C)c1 | 500 nM |
| Nc1ncnc2cc(-c3cccc(NC(=O)Nc4ccccc4)c3)sc12 | 710 nM |
| COc1cc(NC(=O)/C=C/c2cccc3ccoc23)ccc1OCCN(C(C)C)C(C)C | 1040 nM |
| CCCc1cc(N2CCC(N(CC)CC)C2)nc(Nc2ccc(OC)cc2)n1 (stereo not drawn) | 170 nM |
| Cc1[nH]c(C)c(-c2ccc(-c3ccccc3F)nc2)c(=O)c1Br | 400 nM |
| CC(Cc1ccc(SCCSc2ccccc2)cc1)NCC(O)c1cccc(Cl)c1 (stereo not drawn) | 370 nM |
| COc1ccc(-c2ccccc2)cc1NC(=S)NC1CCC(CN2CCC(c3c[nH]c4ccccc34)CC2)CC1 (stereo not drawn) | 650 nM and 740 nM |
| NC(N)=Nc1nc(CCCCCCCCc2csc(N=C(N)N)n2)cs1 | 600 nM |
| O=C(CNC(=O)c1ccc(O)cc1)Nc1cccc(-c2cccc(-c3nc4ccc(C(F)(F)F)cc4[nH]3)c2)c1 | 1040 nM |
| Nc1cc(C=Cc2ccc(O)cc2)nc2ccccc12 | 990 nM |
| N=C(N)c1ccc(Nc2nc(Nc3ccc(-c4ccccc4)cc3)ncc2[N+](=O)[O-])cc1 | 800 nM |
| COc1ccc2c(NN=Cc3cccc(Cl)c3)cc(C)nc2c1 | 730 nM |
| Cc1noc(C)c1-c1cccc(CNCc2ccc(-c3ccc(-c4nc5ccc(C(F)(F)F)cc5[nH]4)s3)cc2)c1 | 180 nM |
| CCCCCOc1ccc(CC(C)NCC(O)c2cccc(Cl)c2)cc1 (stereo not drawn) | 650 nM |
| N#Cc1ccc(-c2ccc(C(=O)NC3CCN(CCN4CCC(c5cn(CCOC6CCCCO6)c6ccccc56)CC4)CC3)cc2)cc1 (stereo not drawn) | 600 nM |
| O=C(Cn1c(CCc2cccc(F)c2F)nc(=O)c2ccccc21)N(CCCN1CCCCC1)Cc1ccc(-c2ccc(C(F)(F)F)cc2)cc1 | 760 nM |
| CCc1ccc(CN2CCC(NC(=O)c3ccc(-c4ccccc4F)s3)CC2)cc1 | 1490 nM |
| O=C(/C=C/c1ccc(Cl)cc1)NCCCCCN1CCCN(C(=O)Nc2ccc(Cl)c(C(F)(F)F)c2)CC1 | 910 nM |
| O=C(Nc1ccc(Cl)cc1)Nc1ccc(-c2cccc(-c3nc4ccc(F)cc4[nH]3)c2)cc1 | 290 nM |
| CC[C@]1(C)C[C@@H](NC(=O)NC(=O)c2ccc(OC)cc2)[C@]2(C)[C@H](C)CC[C@]3(CCC(=O)[C@H]32)[C@@H](C)[C@@H]1OC(=O)NC(=O)c1ccc(OC)cc1 | 990 nM |
| CCCCCC(C)N=C(Nc1ccc(C#N)cc1O)Nc1cccc(Cl)c1Cl (stereo not drawn) | 800 nM |

Source: PubChem BioAssay AID2305 (GlaxoSmithKline (GSK), 2010)
